Test results taken from PubChem BioAssay (NCI).
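96-well plates; 48 h exposure; 5 concentrations. Endpoints by linear interpolation between flanking doses. Not reached: highest tested concentration assigned. Here, GI50 denotes the concentration required for 50% inhibition of growth. TGI: total growth inhibition.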

Columns and labels:
Experiment in all cases: growth of human tumour cells (NCI), 48 h
[1] = tested on: 786-0 renal
[2] = tested on: A498 renal
[3] = tested on: A549 NSCLC
[4] = tested on: ACHN renal
[5] = tested on: BT-549 breast
[6] = tested on: CCRF-CEM leukemia
[7] = tested on: DU-145 prostate
[8] = tested on: EKVX NSCLC
[9] = tested on: HCC-2998 colon
[10] = tested on: HCT-116 colon
[11] = tested on: HL-60(TB) leukemia
[12] = tested on: HOP-62 NSCLC
[13] = tested on: HOP-92 NSCLC
[14] = tested on: HS 578T breast
[15] = tested on: HT29 colon
[16] = tested on: IGROV1 ovarian
[17] = tested on: K-562 leukemia
[18] = tested on: KM12 colon
[19] = tested on: M14 melanoma
[20] = tested on: MALME-3M melanoma
[21] = tested on: MCF7 breast
[22] = tested on: MDA-MB-231 breast
[23] = tested on: MDA-MB-435
[24] = tested on: MOLT-4 leukemia
[25] = tested on: NCI-H226 lung
[26] = tested on: NCI-H23 lung
[27] = tested on: NCI-H460 lung
[28] = tested on: NCI-H522 lung
[29] = tested on: NCI/ADR-RES ovarian
[30] = tested on: OVCAR-3 ovarian
[31] = tested on: OVCAR-4 ovarian
[32] = tested on: OVCAR-5 ovarian
[33] = tested on: OVCAR-8 ovarian
[34] = tested on: PC-3 prostate
[35] = tested on: RPMI-8226 leukemia
[36] = tested on: SF-268 CNS
[37] = tested on: SF-539 CNS
[38] = tested on: SK-MEL-2 melanoma
[39] = tested on: SK-MEL-28 melanoma
[40] = tested on: SK-MEL-5 melanoma
[41] = tested on: SK-OV-3 ovarian
[42] = tested on: SN12C renal
[43] = tested on: SNB-19 CNS
[44] = tested on: SNB-75 CNS
[45] = tested on: SR leukemia
[46] = tested on: SW-620 colon
[47] = tested on: T-47D breast
[48] = tested on: TK-10 renal
[49] = tested on: U251 CNS
[50] = tested on: UACC-257 melanoma
[51] = tested on: UACC-62 melanoma
[52] = tested on: UO-31 renal

SMILES: CCOC(=O)Nc1ccc(-c2nc(-c3cccc(OCCN4CCOCC4)c3)c(-c3ccnc(Br)c3)[nH]2)cc1
- GI50 [1]: 1.6 µM
- TGI [1]: 4.12 µM
- GI50 [2]: 1.66 µM
- TGI [2]: 5.66 µM
- GI50 [3]: 3.47 µM
- TGI [3]: > 100 µM
- GI50 [4]: 3.06 µM
- TGI [4]: > 100 µM
- GI50 [5]: 2.9 µM
- TGI [5]: > 100 µM
- GI50 [6]: 2.94 µM
- TGI [6]: > 100 µM
- GI50 [7]: 4.05 µM
- TGI [7]: > 100 µM
- GI50 [8]: 3.2 µM
- TGI [8]: > 100 µM
- GI50 [9]: 2.28 µM
- TGI [9]: 6.11 µM
- GI50 [10]: 2.98 µM
- TGI [10]: > 100 µM
- GI50 [11]: 2.15 µM
- TGI [11]: 5.39 µM
- GI50 [12]: 3.1 µM
- TGI [12]: > 100 µM
- GI50 [13]: 2.77 µM
- TGI [13]: 7.79 µM
- GI50 [14]: 1.55 µM
- TGI [14]: 4.91 µM
- GI50 [15]: 2.9 µM
- TGI [15]: > 100 µM
- GI50 [16]: 3.65 µM
- TGI [16]: > 100 µM
- GI50 [17]: 2.53 µM
- TGI [17]: > 100 µM
- GI50 [18]: 3.19 µM
- TGI [18]: > 100 µM
- GI50 [19]: 2.97 µM
- TGI [19]: 13.7 µM
- GI50 [20]: 1.6 µM
- TGI [20]: 3.46 µM
- GI50 [21]: 1.62 µM
- TGI [21]: 4.27 µM
- GI50 [22]: 3.79 µM
- TGI [22]: > 100 µM
- GI50 [23]: 3.07 µM
- TGI [23]: 47.6 µM
- GI50 [24]: 2.23 µM
- TGI [24]: > 100 µM
- GI50 [25]: 3.18 µM
- TGI [25]: > 100 µM
- GI50 [26]: 2.19 µM
- TGI [26]: 5.6 µM
- GI50 [27]: 3.32 µM
- TGI [27]: > 100 µM
- GI50 [28]: 3.31 µM
- TGI [28]: > 100 µM
- GI50 [29]: 3.39 µM
- TGI [29]: > 100 µM
- GI50 [30]: 4.3 µM
- TGI [30]: > 100 µM
- GI50 [31]: 4.36 µM
- TGI [31]: > 100 µM
- GI50 [32]: 5.11 µM
- TGI [32]: > 100 µM
- GI50 [33]: 3.73 µM
- TGI [33]: > 100 µM
- GI50 [34]: 2.87 µM
- TGI [34]: > 100 µM
- GI50 [35]: 1.07 µM
- TGI [35]: 3.78 µM
- GI50 [36]: 4.55 µM
- TGI [36]: > 100 µM
- GI50 [37]: 2.08 µM
- TGI [37]: 7.48 µM
- GI50 [38]: 2.41 µM
- TGI [38]: 6.07 µM
- GI50 [39]: 1.78 µM
- TGI [39]: 3.75 µM
- GI50 [40]: 1.74 µM
- TGI [40]: 3.15 µM
- GI50 [41]: 2.66 µM
- TGI [41]: 6.25 µM
- GI50 [42]: 3.77 µM
- TGI [42]: > 100 µM
- GI50 [43]: 3.81 µM
- TGI [43]: > 100 µM
- GI50 [44]: 1.34 µM
- TGI [44]: 6.91 µM
- GI50 [45]: 2.74 µM
- TGI [45]: > 100 µM
- GI50 [46]: 3.42 µM
- TGI [46]: > 100 µM
- GI50 [47]: 2.74 µM
- TGI [47]: > 100 µM
- GI50 [48]: 4.26 µM
- TGI [48]: > 100 µM
- GI50 [49]: 2.75 µM
- TGI [49]: > 100 µM
- GI50 [50]: 2.21 µM
- TGI [50]: 5.24 µM
- GI50 [51]: 2.26 µM
- TGI [51]: 7.14 µM
- GI50 [52]: 2.72 µM
- TGI [52]: > 100 µM
